Test results: patent publication US20110130447A1, “Production of hop extracts having oestrogenic and antiproliferative bioactivity” (priority 2004, published 2011)

Experiments:
[1] = cited from earlier work; for oestrogenic activity: Milligan et al., 1999, 2000
human oestrogen receptor = molecular target: T1, human oestrogen receptor (Homo sapiens, UniProt P03372); assay: Oestrogen-inducible yeast screen (Lac-Z reporter); type: cell-based; conditions: FIG. 4, relative to 8-prenylnaringenin
T1 construct: expressed in transfected cells; host or cells: Saccharomyces cerevisiae
Method: The yeasts were grown in a medium containing increasing concentrations of 17β-estradiol (positive control), 8-prenylnaringenin (8-PN), 8-isopentylnaringenin (8PN-H2) or dihydro-isoxanthohumol (IsoX-H2). Expression of the Lac-Z reporter gene was spectrophotometrically measured and quantified.

[2] = Bioavailability and stability of 8-isopentylnaringenin compared with 8-prenylnaringenin
[3] = tested on: oestrogen-responsive MCF-7 breast cancer cells; assay: Bioassay of 8-prenylnaringenin-induced proliferation of MCF-7 cells and its inhibition by xanthohumol; type: cell-based
Method: A bioassay was developed to probe proliferation of oestrogen-dependent cancer cells by 8-prenylnaringenin and to determine concentrations of xanthohumol required to inhibit this 8-prenylnaringenin-induced proliferation. Thereto, oestrogen-responsive MCF-7 breast cancer cells were grown in 96-well plates in the presence of a fixed and growth-stimulatory concentration of 8-prenylnaringenin and varying concentrations of xanthohumol. For each concentration of 8-prenylnaringenin (1 nM, 10 nM, and 100 nM), the concentrations of xanthohumol were 0 μM, 0.1 μM, 1 μM, 5 μM, 10 μM and 25 μM, respectively.

[4] = Milligan et al., 2002; cited from earlier work
[5] = tested on: mouse mammary gland organ culture; conditions: Gerhauser et al., 2002; cited from earlier work
cyclooxygenase-1 = molecular target: T2, cyclooxygenase-1 (Ovis aries, UniProt P05979); conditions: Gerhauser et al., 2002; cited from earlier work
T2 sequence (P05979 25-600): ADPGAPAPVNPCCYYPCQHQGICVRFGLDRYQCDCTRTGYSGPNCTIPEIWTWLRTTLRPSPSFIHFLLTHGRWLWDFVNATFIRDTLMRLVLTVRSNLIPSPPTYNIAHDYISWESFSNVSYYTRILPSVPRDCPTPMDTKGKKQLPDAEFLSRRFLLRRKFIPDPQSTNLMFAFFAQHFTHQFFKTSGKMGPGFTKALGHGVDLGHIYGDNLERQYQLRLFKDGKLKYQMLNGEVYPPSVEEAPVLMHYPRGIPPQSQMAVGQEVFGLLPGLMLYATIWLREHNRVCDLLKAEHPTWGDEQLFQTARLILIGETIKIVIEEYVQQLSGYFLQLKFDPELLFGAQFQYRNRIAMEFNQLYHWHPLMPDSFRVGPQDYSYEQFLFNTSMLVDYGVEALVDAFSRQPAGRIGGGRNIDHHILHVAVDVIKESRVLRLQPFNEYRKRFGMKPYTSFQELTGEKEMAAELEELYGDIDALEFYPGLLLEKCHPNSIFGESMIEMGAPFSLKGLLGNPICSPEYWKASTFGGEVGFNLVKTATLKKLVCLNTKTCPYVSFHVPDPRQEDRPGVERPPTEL

cyclooxygenase-2 = molecular target: T3, cyclooxygenase-2 (Homo sapiens, UniProt P35354); conditions: Gerhauser et al., 2002; cited from earlier work
T3 sequence (P35354 18-604): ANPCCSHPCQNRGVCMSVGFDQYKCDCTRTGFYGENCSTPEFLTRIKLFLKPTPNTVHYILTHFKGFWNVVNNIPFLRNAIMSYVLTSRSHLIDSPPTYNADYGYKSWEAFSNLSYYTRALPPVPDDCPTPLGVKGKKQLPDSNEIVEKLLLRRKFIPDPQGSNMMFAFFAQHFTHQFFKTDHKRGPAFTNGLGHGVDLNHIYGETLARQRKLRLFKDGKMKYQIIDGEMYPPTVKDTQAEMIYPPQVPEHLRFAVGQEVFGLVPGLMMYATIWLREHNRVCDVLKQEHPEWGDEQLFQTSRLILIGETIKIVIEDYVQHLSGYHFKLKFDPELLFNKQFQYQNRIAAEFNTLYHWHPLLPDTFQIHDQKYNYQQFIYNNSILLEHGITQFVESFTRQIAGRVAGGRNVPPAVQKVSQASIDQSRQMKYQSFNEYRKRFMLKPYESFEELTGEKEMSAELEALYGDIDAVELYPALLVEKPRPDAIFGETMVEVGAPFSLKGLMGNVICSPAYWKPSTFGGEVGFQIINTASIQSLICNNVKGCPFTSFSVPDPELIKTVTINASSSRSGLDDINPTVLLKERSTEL

T1 sequence (P03372 whole entry): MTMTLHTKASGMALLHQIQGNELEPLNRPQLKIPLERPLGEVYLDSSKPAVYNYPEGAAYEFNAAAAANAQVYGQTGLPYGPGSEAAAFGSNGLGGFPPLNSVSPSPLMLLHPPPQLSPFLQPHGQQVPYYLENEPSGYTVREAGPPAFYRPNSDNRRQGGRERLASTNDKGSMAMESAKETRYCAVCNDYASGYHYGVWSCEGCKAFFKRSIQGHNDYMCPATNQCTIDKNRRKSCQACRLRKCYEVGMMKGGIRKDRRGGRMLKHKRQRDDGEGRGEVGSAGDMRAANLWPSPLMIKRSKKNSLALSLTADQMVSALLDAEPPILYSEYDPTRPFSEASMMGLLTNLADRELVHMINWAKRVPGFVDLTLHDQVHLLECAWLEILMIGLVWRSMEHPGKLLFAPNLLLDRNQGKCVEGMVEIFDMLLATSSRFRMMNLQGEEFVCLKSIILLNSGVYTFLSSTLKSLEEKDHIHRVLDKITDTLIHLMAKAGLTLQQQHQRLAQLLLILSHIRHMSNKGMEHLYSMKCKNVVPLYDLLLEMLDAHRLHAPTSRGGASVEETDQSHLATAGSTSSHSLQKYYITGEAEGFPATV

## CC(C)=CCc1c(O)c(CC=C(C)C)c2c(c1O)C(=O)C[C@@H](c1ccc(O)cc1)O2 [6,8-diprenylnaringenin]
[1]
  oestrogenic activity: only weakly oestrogenic

## CC(C)=CCc1c(O)cc2c(c1O)C(=O)C[C@@H](c1ccc(O)cc1)O2 [6-prenylnaringenin]
[1]
  oestrogenic activity: only weakly oestrogenic

## CC(C)=CCC/C(C)=C/Cc1c(O)cc(O)c2c1O[C@H](c1ccc(O)cc1)CC2=O [8-geranylnarin-genin]
[1]
  oestrogenic activity: only weakly oestrogenic

## CC(C)CCc1c(O)cc(O)c2c1O[C@H](c1ccc(O)cc1)CC2=O [8-isopentylnaringenin]
Human oestrogen receptor
  oestrogenic activity, times weaker than 8-prenylnaringenin: 3-4 times
[2]
  stability compared to 8-prenylnaringenin (less easily metabolised): better stability

## CC(C)=CCc1c(O)cc(O)c2c1O[C@H](c1ccc(O)cc1)CC2=O [8-prenylnaringenin]
[3]; increasing concentrations of 8-prenylnaringenin (1 nM, 10 nM, 100 nM), FIG. 2
  proliferation of MCF-7 breast cancer cells: increased proliferation
[1]
  oestrogenic activity: activity greater than that of other established phyto-oestrogens
[4]
  oestrogenic activity in vivo: high oestrogenic activity

## COc1cc(O)c(CC=C(C)C)c2c1C(=O)CC(c1ccc(O)cc1)O2 (stereo not shown) [isoxanthohumol]
[1]
  oestrogenic activity: only weakly oestrogenic

## COc1cc(O)c(CC=C(C)C)c(O)c1C(=O)/C=C/c1ccc(O)cc1 [xanthohumol]
[3]; FIG. 2
  xanthohumol to 8-prenylnaringenin weight ratio giving sufficient inhibition of proliferation: at least 10
[3]; MCF-7 cells, 8-prenylnaringenin 1, 10, 100 nM
  concentrations of xanthohumol that significantly inhibit the proliferation induced by 8-prenylnaringenin: at least 5 μM
[3]; MCF-7 cells, each concentration of 8-prenylnaringenin, ratio of xanthohumol to 8-prenylnaringenin below 10
  concentrations of xanthohumol that stimulated the proliferation induced by 8-prenylnaringenin: < 1 µM
[1]; no source stated
  oestrogenic activity of xanthohumol: oestrogenically inactive
[5]
  prevention of carcinogen-induced preneoplastic lesions: efficient at nanomolar concentrations
cyclooxygenase-1
  inhibition of cyclooxygenase-1 activity: inhibition
cyclooxygenase-2
  inhibition of cyclooxygenase-2 activity: inhibition
